Active and inactive are the calls of the source. The calls are words filed in the database; no cut-off is given here.
Legend:
Type in all cases: functional, cell-based
HL-60 [1] = experiment: Cytotoxicity against human HL-60 cells assessed as reduction in cell viability incubated for 48 hrs by CCK-8 assay; conditions: HL-60, 48 h
KG-1 [2] = experiment: Cytotoxicity against human KG-1 cells assessed as reduction in cell viability incubated for 48 hrs by CCK-8 assay; conditions: KG-1, 48 h
KG-1 [3] = experiment: Induction of apoptosis in human KG-1 cells assessed as caspase 9 activation incubated for 48 hrs by Western blot analysis; conditions: dose 10-30 µM
KG-1 [4] = experiment: Induction of apoptosis in human KG-1 cells assessed as increase in PARP cleavage incubated for 48 hrs by Western blot analysis; conditions: dose 10-30 µM
HL-60 [5] = experiment: Induction of apoptosis in human HL-60 cells assessed as increase in Bax expression at 10 to 30 uM incubated for 48 hrs by Western blot analysis; conditions: dose 10-30 µM
HL-60 [6] = experiment: Induction of apoptosis in human HL-60 cells assessed as increase in Cyt-c expression at 10 to 30 uM incubated for 48 hrs by Western blot analysis; conditions: dose 10-30 µM
HL-60 [7] = experiment: Induction of apoptosis in human HL-60 cells assessed as decrease in Bcl2 expression incubated for 48 hrs by Western blot analysis; conditions: dose 10-30 µM
HL-60 [8] = experiment: Induction of apoptosis in human HL-60 cells assessed as caspase 9 activation incubated for 48 hrs by Western blot analysis; conditions: dose 10-30 µM
HL-60 [9] = experiment: Induction of apoptosis in human HL-60 cells assessed as increase in PARP cleavage incubated for 48 hrs by Western blot analysis; conditions: dose 10-30 µM
HL-60 [10] = experiment: Induction of apoptosis in human HL-60 cells assessed as caspase 3 activation incubated for 48 hrs by Western blot analysis; conditions: dose 10-30 µM
KG-1 [11] = experiment: Induction of apoptosis in human KG-1 cells assessed as caspase 3 activation incubated for 48 hrs by Western blot analysis; conditions: dose 10-30 µM

SMILES | IC50 (HL-60 [1]) | IC50 (KG-1 [2]) | further results
COC(=O)CC1=CC[C@H]2[C@@H](C(=O)[C@H](O)[C@@H]3[C@]2(C)CCC[C@]3(C)C(=O)OC)[C@H]1C | 28.5 µM | 42.2 µM | 
CC[C@@]1(O)C(=O)OCc2c1cc1n(c2=O)Cc2cc3ccccc3nc2-1 [CAMPTOTHECIN] | 1.7 µM | 1.6 µM | 
COC(=O)[C@]1(C)[C@@H]2C(=O)[C@H](O)[C@H]3[C@@H](C)/C(=C/C(=O)O)CC[C@@H]3[C@@]2(C)CC[C@@H]1O | 24.3 µM | 35.7 µM | 
COC(=O)[C@]1(C)[C@@H]2C(=O)[C@H](OC(C)=O)[C@H]3[C@@H](C)/C(=C/C(=O)O)CC[C@@H]3[C@@]2(C)CC[C@@H]1O | 15.2 µM | 18.6 µM | Activity (KG-1 [3]): Dose-dependent effect; Activity (KG-1 [4]): Dose-dependent effect; Activity (HL-60 [5]): Active; Activity (HL-60 [6]): Active; Activity (HL-60 [7]): Dose-dependent effect; Activity (HL-60 [8]): Dose-dependent effect; Activity (HL-60 [9]): Dose-dependent effect; Activity (HL-60 [10]): Dose-dependent effect; Activity (KG-1 [11]): Dose-dependent effect
CCOC(C)=O [ETHYL ACETATE] | 216 µg/mL | > 300 µg/mL | 
CCCCCC [HEXANE] | > 300 µg/mL |  | 
COC(=O)/C=C1\CC[C@H]2[C@@H](C(=O)[C@H](O)[C@@H]3[C@]2(C)CC[C@H](O)[C@]3(C)C(=O)OC)[C@H]1C | 25.7 µM | > 50 µM | 
ClCCl [METHYLENE CHLORIDE] | 116 µg/mL | 149 µg/mL | 
COC(=O)[C@]1(C)[C@@H]2[C@@H](O)C(=O)[C@H]3[C@@H](C)/C(=C/C(=O)O)CC[C@@H]3[C@@]2(C)CC[C@@H]1O | 28.7 µM | > 50 µM | 

From ChEMBL document CHEMBL4673274, “Cytotoxic components from the leaves of Erythrophleum fordii induce human acute leukemia cell apoptosis through caspase 3 activation and PARP cleavage” (Bioorg Med Chem Lett, 2021)
